Experimental data from publication PMC5795001, “The activity of the C4-dicarboxylic acid chemoreceptor of Pseudomonas aeruginosa is controlled by chemoattractants and antagonists” (Scientific Reports, 2018).
“Also recorded” adds a separate entry of the source.

How the values were obtained:
[1] = system: Pseudomonas aeruginosa PAO1 cheA2 mutant; assay: Capillary chemotaxis assay, cheA2 mutant; type: cell-based; details: 10 mM L-malic acid
Description: (§1) A recent bioinformatic study has predicted that PA2652 signals through the che pathway. To verify this prediction we conducted chemotaxis assays to L-malic acid using the wt strain as well as mutants in cheA1 and cheA2, encoding respectively the histidine kinases of the che and che2 pathways.
(§2) Overnight cultures of P. aeruginosa strains were diluted to an OD660 of 0.05 in MS medium (30 mM Na2HPO4, 20 mM KH2PO4, 25 mM NH4NO3, 1 mM MgSO4) supplemented with 6 mg l^−1 Fe-citrate, trace elements[81] and 15 mM glucose as carbon source, and grown at 37 °C with orbital shaking (200 rpm). At an OD660 of 0.4 ([…]) cultures were centrifuged at 1,700 × g for 5 min and the resulting pellet was washed twice with chemotaxis buffer (50 mM potassium phosphate, […], 0.05% (v/v) glycerol, pH 7.0). Subsequently, the cells were resuspended in the same buffer, adjusted to an OD660 of 0.1 and 230 µl aliquots of the bacterial cultures were placed into 96-well plates. For the quantitative assays, one-microliter capillary tubes (Microcaps, Drummond Scientific, Ref. P1424) were heat-sealed at one end and filled with either the chemotaxis buffer (negative control) or chemotaxis buffer containing the chemoeffectors to test. The capillaries were immersed into the bacterial suspensions at its open end. […] The number of colony forming units was determined after overnight incubation. […]

[2] = target: T1, PA2652-LBD (Pseudomonas aeruginosa, UniProt Q9I0I6); assay: biochemical; type: binding, Pseudomonas aeruginosa PAO1
T1 construct: The DNA fragment encoding the LBD of PA2652 (Lys^34–Thr^205) was amplified; His-tag (vector-encoded by pET28b(+) via NdeI site); made in house; host or cells: Escherichia coli BL21 (DE3)
T1 sequence (Q9I0I6 34-205): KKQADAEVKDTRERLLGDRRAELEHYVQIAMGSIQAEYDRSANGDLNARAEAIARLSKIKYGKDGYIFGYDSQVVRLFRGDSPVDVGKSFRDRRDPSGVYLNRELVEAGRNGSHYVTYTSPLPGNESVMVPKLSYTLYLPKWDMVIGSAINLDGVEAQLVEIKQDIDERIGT
Description: To unambiguously determine ligand binding, we conducted Isothermal Titration Calorimetry (ITC)[40] binding studies with the purified protein.
Experiments were conducted on a VP-microcalorimeter (Microcal, Amherst, MA, USA) at 20 °C. PA2652-LBD was dialyzed overnight against TNG buffer, adjusted to a concentration of 20–35 μM and placed into the sample cell of the instrument. The protein was titrated by the injection of 9.6–14.4 μl aliquots of 1–20 mM ligand solutions that were prepared in TNG buffer (20 mM Tris/HCl, 150 mM NaCl, 10% (v/v) glycerol, pH 6.8) immediately before use. The mean enthalpies measured from the injection of ligands into buffer were subtracted from raw titration data prior to data analysis with the MicroCal version of ORIGIN. Data were fitted with the “One binding site model”.

[3] = system: Pseudomonas aeruginosa PAO1 cheA1 mutant; assay: Capillary chemotaxis assay, cheA1 mutant; type: cell-based; details: 10 mM L-malic acid
Description: as §1, §2

[4] = target: T1, PA2652-LBD; assay: Sedimentation velocity analytical ultracentrifugation; parameters: species or system Pseudomonas aeruginosa PAO1; details: 1 mM L-malic acid, protein 5-20 µM, 7 °C, PIPES buffer
Description: To address this issue, PA2652-LBD was analysed by sedimentation velocity analytical ultracentrifugation (AUC). Initial experiments were conducted using concentrations of ligand-free protein ranging from 5 to 20 µM. […] The molecular weight extracted from the sedimentation coefficient and the shape was of 41 kDa. Considering that the sequence-derived mass of the PA2652-LBD monomer is 21.5 kDa, the observed species is clearly a protein dimer. Since no shift to higher sedimentation coefficients was measured with increasing protein concentrations (data not shown), the dimer species can be considered stable over the protein concentration range analysed. The above experiments were also performed in the presence of saturating concentrations of L-malic acid.
Experiments were performed on a Beckman Coulter Optima XL-A analytical ultracentrifuge (Beckman-Coulter, Palo Alto, CA, USA) equipped with UV-visible absorbance detection system, using an An50Ti 8-hole rotor and 12 mm path-length charcoal-filled epon double-sector centrepieces. […] Light at a wavelength of 234 nm was recorded in the absorbance optics mode. […] Buffer density (ρ = 1.0015 g/mL) and viscosity (η = 0.01449 Poise) at 7 °C were calculated from the buffer composition using SEDNTERP software. […]

[5] = target: T1, PA2652-LBD; type: binding, Pseudomonas aeruginosa PAO1; details: DSF screening as described in text; 2 °C threshold for significant hits
Text: To identify ligands that may bind to the LBD of PA2652, we conducted Differential Scanning Fluorimetry (DSF) based high throughput ligand screening assays as described previously[37],[38]. DSF analyses permit the determination of melting temperature (Tm) values, which corresponds to the temperature at which half the protein is in its native conformation whereas the remaining half has undergone thermal unfolding. Since ligand binding typically enhances the thermal stability of proteins, increases in the Tm in the presence of ligands may be indicative of specific binding. We screened 450 different compounds available in five different ligand arrays from Biolog (Supplementary Fig. S3). The screened collection included different carbon and nitrogen sources, phosphorous and sulfurous compounds as well as different nutrient supplements.
Thermal shift assays were performed on a MyIQ2 Real-Time PCR instrument (BioRad). Ligands from the different compound arrays (Biolog, Hayward, CA, USA; see Supplementary Fig. S3) were dissolved in 50 μl of MilliQ water, which, according to the manufacturer, corresponds to a concentration of 10–20 mM. Screening was performed using 96 wells plates. Each well contained 20 μM of protein dialyzed into TNG buffer (20 mM Tris/HCl, 150 mM NaCl, 10% (v/v) glycerol, pH 6.7), 2.5 μl of the resuspended compounds and SYPRO Orange (Life Technologies) at 5× concentration. In a single well (ligand free protein) the compound was substituted by water. Samples were heated from 23 °C to 85 °C at a scan rate of 1 °C/min. The protein unfolding curves were obtained by following the changes in SYPRO Orange fluorescence. Melting temperatures were determined using the first derivative values from the raw fluorescence data.

SMILES: O=C(O)C[C@H](O)C(=O)O [L-malic acid]
- Chemotaxis in cheA2 mutant [1]: almost identical to that of wt strain; also recorded: indistinguishable from that of the wt
- Kd [2]: 23 ± 1 µM
- TΔS (entropy change of binding) ([2]; ITC): 2.1 ± 1 kcal/mol
- Binding in ITC ([2]; YES/NO): YES
- Chemotaxis in cheA1 mutant [3]: abolished chemotaxis; also recorded: no response was observed
- Effect of ligand binding on oligomerization state of PA2652-LBD [4]: does not have any significant effects on the oligomerization state
- Tm increases [5]: more than 2 °C
